The results in this text go back to US11103526B2, “Methods for treatment using small molecule potassium-sparing diuretics and natriuretics” (University of Pittsburgh—Of the Commonwealth System of …, priority 2016, dated 2021).

For one assay, the system named is anesthetized rats. Description: Acute cardiovascular and renal effects of an intravenous bolus in anesthetized rats (Example 1). It is filed as in vivo, male Sprague-Dawley rats. The conditions noted are these: 33.5 μmoles/kg intravenous bolus. The method, then: Animals. This study employed male Sprague-Dawley rats (Charles River; Wilmington, Mass.) that were approximately 16 weeks old. The Institutional Animal Care and Use Committee approved all procedures.
The rats were anesthetized with Inactin (90 mg/kg, i.p.) and placed on an isothermal pad, and body temperature was monitored with a rectal probe thermometer and maintained at 37° C. with a heat lamp. […] A PE-50 cannula was inserted into the jugular vein, and an infusion of 0.9% saline at 25 μl/min was initiated. A PE-10 tubing was placed in the left ureter for urine collection. […] The dose was selected based on preliminary experiments with 8-aminoguanosine. […] Each group of rats (n of at least 6) received only one treatment. Ten minutes after the test agents were administered, urine was collected for another 30 minutes (Period 2: […] into the protocol).
Statistics. Absolute values are presented as the mean±SEM. Fold-increases were calculated as follows: Period 3 value÷Period 1 value. Statistical analyses were performed using analysis of variance (ANOVA) followed by Fisher's Least Significant Difference (LSD) test if the overall effects or interactions in the ANOVA were significant. P<0.05 was considered statistically significant.

For a further assay, the system named is MCT-induced PH. Description: Monocrotaline (MCT)-induced pulmonary hypertension. The conditions noted are these: 30 mg/kg/day. It is filed as in vivo, male Sprague Dawley rats. The method, then:
Because PNPase metabolizes guanosine to guanine, the mechanism by which PNPase activity is associated with PH likely includes guanosine protection against PH. A total of 24 male Sprague Dawley rats were used to determine whether administration of guanosine attenuates the development of PH in animals with MCT-induced PH. Animals were randomly assigned for intraperitoneal (i.p.) injection with either a mixture of 1 ml of 1N HCl neutralized with 1.0 N NaOH and diluted with distillated water (10 ml/kg, Control group; n=8) or MCT (60 mg/kg, […]). The MCT (Sigma, St Louis, Mo.) was dissolved in 1N HCl at 100 mg/ml, which was neutralized with 1 N NaOH and diluted with distillated water to 6 mg/ml. Next, a subset of MCT rats (n=8) were assigned to receive guanosine (30 mg/kg/day). The rats were randomly assigned to the Control, MCT, or MCT+guanosine group.
In this PH model, three weeks after MCT administration, mortality rapidly increases (Ren et al., J Pharmacol Exp Ther., 325:920-926, 2008; Seoane et al., Southern Medical Journal, 94:635-639, 2001). Therefore, animals were monitored for four weeks, and acute measurements of right ventricular pressure and morphometric analyses were performed. Twenty-eight days after administration of MCT, the animals were anesthetized and instrumented for right ventricular peak systolic pressure (RVPSP) measurement. Briefly, a PE-240 polyethylene catheter was inserted into the trachea to facilitate breathing. An angled Milliar Micro-tip pressure transducer catheter SPR-513 (Millar Instruments) was inserted into the right jugular vein and advanced into the right ventricle (RV) for RVPSP measurement. After 30-minutes of stabilization, RVPSP was recorded over 20 minutes. The animals were euthanized by anesthetic overdose, and the heart and lungs were collected for morphometric analyses.

Assay [1] has as its system RBCs from SCD patients (HbSS). Description: Hypoxia-induced sickling of RBCs from SCD patients. Particulars: 2 μmol/L; 1.5 hours pre-incubation, then hypoxia for 3 hours. It is filed as cell-based, human. As to the method: In addition to causing PH in SCD patients and HIV-infected patients, the contribution of PNPase to RBC sickling in SCD patients was assessed. Fresh RBCs were obtained from two adult SCD patients (HbSS); the RBCs were diluted in F-10 HAM buffer to a final hematocrit of 4%. Next, glucose was added for a final concentration of 5.5 mmol/L, and the samples were incubated at room air/temperature in 12-well plates. The RBCs were then treated with either vehicle, 8-aminoguanosine (2 μmol/L), inosine (2 μmol/L), or an 8-aminoguanosine and inosine combination. After 1.5 hours, the RBCs were placed in a hypoxic glove box and maintained under hypoxia (5% 02) for 3 hours, while undergoing mild agitation. At the end of incubation, to prevent reoxygenation-derived morphological changes, the RBCs were fixed under hypoxic conditions in the hypoxic glove box. The samples were assayed for percent sickling.

Setting [2] is: Period 3 compared with Period 1.

Regarding `Nc1nc2[nH]c(O)nc2c(=O)[nH]1` [8-hydroxyguanine, 8-Hydroxyguanine], the “efficacy grouping (diuretic/natriuretic)” value with anesthetized rats is “moderate efficacy”. Moreover, in the assay on anesthetized rats (setting [2]), the sodium excretion increase was found to be 8.6 fold.

Turning to `Nc1nc2[nH]c([N+](=O)[O-])nc2c(=O)[nH]1` [8-nitroguanine, 8-Nitroguanine], the “efficacy grouping (diuretic/natriuretic)” value in the assay with anesthetized rats is “moderate efficacy”. In the assay with anesthetized rats (setting [2]), the sodium excretion increase was 7.8 fold.

For the compound `Nc1nc2c(nc([N+](=O)[O-])n2[C@@H]2O[C@H](CO)[C@@H](O)[C@H]2O)c(=O)[nH]1` [8-nitroguanosine], in the assay with anesthetized rats, the “efficacy grouping (diuretic/natriuretic)” value is reported as “little or no efficacy”.

In the case of `Nc1nc2[nH]cnc2c(=O)[nH]1` [guanine, Guanine, reference compound], the “efficacy grouping (diuretic/natriuretic)” value in the assay on anesthetized rats was “moderate efficacy”. Further, the sodium excretion increase in the assay on anesthetized rats (setting [2]) is 9.4 fold.

As to `NC(N)=NC(=O)c1nc(Cl)c(N)nc1N` [amiloride, Amiloride, reference compound], in the assay on anesthetized rats, the “effect on heart rate (HR)” value was “modestly decreased”, the “effect on mean arterial blood pressure (MABP)” value is recorded as “modestly decreased”, the “effect on mesenteric blood flow (MBF)” value is “modestly decreased” and the “effect on renal blood flow (RBF)” value is reported as “modestly decreased”. In addition, the urine volume increase in the assay on anesthetized rats (Period 3 (85-115 min) compared with Period 1 (0-30 min)) is recorded as 4.5 fold. In the assay with anesthetized rats (setting [2]), this compound registered a potassium excretion decrease of 96.5% and a sodium excretion increase of 13.6 fold. Moreover, in the assay with anesthetized rats (in words), the “effect on glucose excretion” value was “did not change”.

For `Nc1nc2c(ncn2[C@@H]2O[C@H](CO)[C@@H](O)[C@H]2O)c(=O)[nH]1` [guanosine, Guanosine], the “efficacy grouping (diuretic/natriuretic)” value in the assay on anesthetized rats is “little or no efficacy”. Besides, in the assay with MCT-induced PH (28 days after MCT), the “RV dysfunction (RV EDP, contractility index)” value is “prevented”; the “RV hypertrophy (RV mass)” value was “attenuated”; the “inflammatory cell infiltration into the lungs (ED1+ cells)” value is given as “reduced”; the pulmonary vascular remodeling result was “attenuated”. Also, in the assay with MCT-induced PH (28 days after MCT 60 mg/kg), the “pulmonary hypertension (RVPSP)” value is “attenuated”.

On to `Nc1nc2c(nc(O)n2[C@H]2C[C@H](O)[C@@H](CO)O2)c(=O)[nH]1` [8-hydroxy-2-deoxyguanosine], for which the “efficacy grouping (diuretic/natriuretic)” value with anesthetized rats is “little or no efficacy”.

With `O=c1[nH]cnc2c1ncn2[C@@H]1O[C@H](CO)[C@@H](O)[C@H]1O` [inosine, Inosine], the “hypoxia-induced sickling of RBCs” value in assay [1] is listed as “significantly reduced”.

Turning to `Nc1nc2c(nc(O)n2[C@@H]2O[C@H](CO)[C@@H](O)[C@H]2O)c(=O)[nH]1` [8-hydroxyguanosine, 8-Hydroxyguanosine], the “efficacy grouping (diuretic/natriuretic)” value in the assay on anesthetized rats is given as “moderate efficacy”. In addition, the sodium excretion increase in the assay on anesthetized rats (setting [2]) was determined as 7.1 fold.
